Results on one substance are retold here after US20060104981A1, “Prophylactic/therapeutic agent for cancer” (priority 2002, published 2006).

What all share (assay type): cell-based
In data set [1] the test system is EZH2 (RNA) in colon cell line HCT116. Nature of the data set: EZH2 (RNA) expression by quantitative PCR after siRNA transfection. The conditions noted are these: 36 hours after transfection, siRNA 45 nM. An excerpt:
(§1) RNA Duplexes for the base sequence represented by SEQ ID NO: 3 (hereinafter briefly referred to as siRNA) were designed (SEQ ID NO: 11 and SEQ ID NO: 12) and provided for the transfection experiment using the synthetic duplexes (Qiagen, Inc.). For control siRNAs, commercially available Control (non-silencing) siRNAs (SEQ ID NO: 13 and SEQ ID NO: 14) (manufactured by Qiagen, Inc.) were used.
(§2) Colon cell line HCT116 (purchased from ATCC) and lung cancer cell line NCI-H1299 (purchased from ATCC) were used as the test cells used for the following test. Forty-eight hours before transfection of siRNAs, 5×10^5 cells were plated on a 24-well plate (manufactured by Falcon Co., Ltd.). In transfection of these siRNAs, Lipofectamine 2000 (manufactured by Invitrogen Corp.) was used in accordance with its protocol. The final concentration of siRNAs was set at 45 nM. RNA was extracted 36 hours after the transfection, following the protocol of RNeasy Mini Kit (manufactured by Qiagen, Inc.) and cDNA was prepared using TaqMan Reverse Transcription Reagents (manufactured by Applied Biosystems, Inc.). Quantitative PCR was performed on ABI PRISM™ 7900HT Sequence Detector (manufactured by Applied Biosystems, Inc.), using two primers (SEQ ID NO: 6 and SEQ ID NO: 7) and a probe (SEQ ID NO: 8), as in EXAMPLE 4.

For data set [2], the system named is EZH2 (RNA) in lung cancer cell line NCI-H1299. Described as above. The conditions noted are these: 36 hours after transfection, siRNA 45 nM.
Excerpt: as §1, §2

In the next data set the test system is colon cell line HCT116. Nature of the data set: Apoptosis (caspase 3/7 activity, Caspase Glo-3/7 assay) after siRNA transfection. The note with it: day 3 after transfection. Here is the method: as §1
(§3) Meanwhile, 1×10^3 cells were seeded on a 96-well plate (manufactured by Falcon Co., Ltd.) to assess the effect on apoptosis. Forty-eight hours later, siRNA or control siRNA to EZH2 was transfected using Lipofectamine 2000 (manufactured by Invitrogen Corp.) as described above. On day 3 after the siRNA transfection, the caspase 3/7 activity as an indicator of apoptosis was compared by the Caspase Glo-3/7 assay (manufactured by Promega Corp.).

Data set [3] has as its system lung cancer cell line NCI-H1299. The description is as above. The note with it: day 3 after transfection. The protocol:
as §1, §3

Turning to “siRNA to EZH2: RNA duplexes for the base sequence of SEQ ID NO: 3; antisense strand SEQ ID NO: 11, sense strand SEQ ID NO: 12 (antisense AAGUUGAACAGAAAGCUGCTT; sense GCAGCUUUCUGUUCAACUUTT; RNA duplexes, chemistry of the tt overhangs not given here)”, the “expression of EZH2 (RNA) as compared to control siRNA (100%)” value in data set [1] is on record as 50%; in data set [2] it was 13%. Besides, the “apoptosis as compared to the control (100%)” value with colon cell line HCT116 was 185%; in data set [3], 143%.
